Experimental data as given in patent publication US5250544A, “New piperidine tetrahydropyridine and pyrrolidine compounds” (Adir et Compagnie, priority 1990, dated 1993).

Assay: Evaluation of the antihypertensive activity: arterial pressure and heart rate in anesthetized dogs, i.v.
Assay type: in vivo
Settings: anesthetized mongrel dogs, versus flesinoxan racemic or isomer (+)
Procedure: Mongrel dogs (males and females) were anesthetized with phenobarbital (30 mg/kg i.v.) and then placed under artificial respiration (Bird Mark VII respirator). The arterial pressure was measured using a catheter placed in the abdominal aorta via the femoral artery. This catheter is connected to a pressure cell (Statham® R23 D6) connected to a recorder.
The heart rate was measured using a Gould Biotach®.
The sympathetic nervous activity was recorded at the level of the renal nerve using a silver electrode. […] The compounds to be examined were administered intravenously.

O=C(NCCN1CCN(c2cccc3c2OC[C@H](CO)O3)CC1)c1ccc(F)cc1 (single isomer, unassigned) [Flesinoxan (+) Isomer]
activity compared with reference product flesinoxan (antihypertensive study, Table II): most active isomer of flesinoxan
